How the values were obtained:
[1] = tested on: LDLs of the Watanabe rabbits; test: Ex vivo copper sulphate oxidation of LDLs from orally treated Watanabe rabbits (MDA production); assay type: in vivo; conditions: for MDA production: 3 days
Experimental: Watanabe rabbits ([…] hyperlipidaemic rabbits) are used that range in weight from 3 kg to 5 kg. The animals are treated orally with the carrier of the test compounds (control group) or with the test compounds at doses of 10, 50 and 250 mg/kg/day for 3 days.
When the treatment is complete, the LDLs of the animals are prepared by ultracentrifugation and subjected to oxidation with copper sulphate (5×10^-6 M). The lipid peroxidation of the LDLs is evaluated after various periods of incubation with copper sulphate (from 2 to 24 hours) by measuring the formation of MDA.
Table C lists the MDA production values according to the incubation period with copper sulphate of those LDLs originating from the control animals and those originating from the animals treated with the compounds of Examples 1, 3 and 31 at different doses or with probucol.

[2] = tested on: cardiac cells; test: Oxidative necrosis of cardiac cells induced by hypoxanthine/xanthine oxidase; assay type: cell-based, new-born rats; conditions: for effect on oxidative necrosis of cardiac cells compared with reference compounds: 10^-6 M and 10^-5 M; for activity at 10 µM / activity at 1 µM / activity at 0.1 µM / index of necrosis of cardiac cells: control = 100, means ± sem; for activity at 10 µM / activity at 1 µM / activity at 0.1 µM: read-out: index of necrosis of cardiac cells; for inhibition at 10 µM / inhibition at 1 µM: Cardiomyocyte, read-out: reduction of oxidative necrosis of cardiomyocytes; for index of necrosis of cardiac cells: 240 min
Experimental: Cardiac cells of new-born rats are used between the 5th and 6th days after placing in a culture. Oxidative necrosis is induced by the enzymatic system hypoxanthine (HX, 1 mM) and xanthine oxidase (XO, 10 mU/ml), which produces free radicals. The necrosis is evaluated 4 hours after the addition of XO/HX by the spectrophotometric measurement of the cytosolic α-hydroxybutyrate dehydrogenase (α-HBDH) activity liberated in the supernatant. Two reference molecules (probucol, vitamin E) and 3 molecules representative of the present invention (corresponding to Examples 1, 3 and 4) were tested. The cells are treated with the molecules 16 hours and 1 hour before the beginning of the experiment after renewing the medium. At the beginning of the experiment, the treatment is carried out one last time.
Table B lists the indices of the necrosis of cardiac cells induced by the system hypoxanthine/xanthine oxidase on its own or in the presence of increasing concentrations of the compounds of the invention or of the reference compounds: probucol and vitamin E.
The necrosis index 100 corresponds to a liberation of 43.6±1.0% in 4 hours of the cytosolic content of α-HBDH in the supernatant.
The results are expressed in the form of means ± sem (4≤n≤5, 3 repetitions per experiment).

[3] = tested on: human LDLs; test: Modification of the LDLs by endothelial cells (MDA formation); assay type: cell-based; conditions: for ability to protect human LDLs compared with probucol or vitamin E, endothelial cells: modifications induced by endothelial cells; for times more powerful than probucol (endothelial cells): test using endothelial cells; for IC50: oxidation by rabbit aorta endothelial cells, 24 hours, read-out: IC50 EC (inhibition of lipid peroxidation of human LDLs, MDA production)
Experimental: Human LDLs are incubated for 24 hours in the presence of rabbit aorta endothelial cells (line RECL B4 supplied by Professor Steinberg, USA) and in the absence or presence of the test compounds (10^-7 M to 10^-4 M).
After incubation, the peroxidation of the LDLs is evaluated by electrophoresis on agar gel and by the formation of one of the products of lipid peroxidation: malonic dialdehyde (MDA) (Steinbrecher U.P., Parthasarathy S, Leake D. S., Witztum J. L., and Steinberg D., Proc. Nat. Acad. Sci. USA 81. 3883-3887, 1984).
The activity of the test compounds is evaluated by calculating the concentrations that reduce the production of MDA by 50% (IC50) compared with the control experiments carried out in the absence of test compound.
(§1) Table A lists the IC50 values, which indicate the capacity to inhibit the lipid peroxidation of human LDLs, obtained with a sample of the compounds of the invention and of the reference compounds probucol and vitamin E, in two tests causing the development of the oxidation of the LDLs: by copper sulphate (Cu^2+) or by endothelial cells (EC).

[4] = tested on: human LDLs; test: Modification of the LDLs by copper sulphate (MDA formation); assay type: biochemical; conditions: for ability to protect human LDLs compared with probucol or vitamin E, copper sulphate: modifications induced by copper sulphate; for IC50: oxidation by copper sulphate, 24 hours, read-out: IC50 Cu^2+ (inhibition of lipid peroxidation of human LDLs, MDA production)
Experimental: Human LDLs are incubated for 24 hours in the presence of copper sulphate (5×10^-5 M or 5×10^-6 M) and in the absence or presence of the test compounds (10^-7 M to 10^-4 M).
After incubation, the peroxidation of the LDLs is evaluated by electrophoresis on agar gel and by the formation of one of the products of lipid peroxidation: malonic dialdehyde (MDA) (Parthasarathy S., Young S. G., Witztum J. L., Pittman R. C., and Steinberg D.; J. Clin. Invest. 77, 641-644, 1986).
The activity of the test compounds is evaluated by calculating the concentrations that reduce the production of MDA by 50% (IC50) compared with control experiments carried out in the absence of test compound.
as §1

[5] = 250 mg/kg/day oral, 2 hours incubation with copper sulphate
[6] = 250 mg/kg/day oral, 4 hours incubation with copper sulphate
[7] = 250 mg/kg/day oral, 6 hours incubation with copper sulphate
[8] = 250 mg/kg/day oral, 8 hours incubation with copper sulphate
[9] = 250 mg/kg/day oral, 24 hours incubation with copper sulphate
[10] = oral, peroxidation induced by copper sulphate
[11] = Rattus norvegicus, 4 h, 10^-5 M
[12] = Rattus norvegicus, 4 h, 10^-6 M
[13] = Rattus norvegicus, 4 h, 10^-7 M
[14] = 50 mg/kg/day oral, 2 hours incubation with copper sulphate
[15] = 50 mg/kg/day oral, 4 hours incubation with copper sulphate
[16] = 50 mg/kg/day oral, 6 hours incubation with copper sulphate
[17] = 50 mg/kg/day oral, 8 hours incubation with copper sulphate
[18] = 50 mg/kg/day oral, 24 hours incubation with copper sulphate

Row | IC50 [4] [nM] | IC50 [3] [nM] | Compound | MDA production [1, 5] [nM/mg proteins] | MDA production [1, 6] [nM/mg proteins] | MDA production [1, 7] [nM/mg proteins] | MDA production [1, 8] [nM/mg proteins] | MDA production [1, 9] [nM/mg proteins] | activity at 10 µM [2, 11] [%] | activity at 1 µM [2, 12] [%] | activity at 0.1 µM [2, 13] [%] | ability to protect human LDLs compared with probucol or vitamin E, endothelial cells [3] | times more powerful than probucol (endothelial cells) [3] [times] | ability to protect human LDLs compared with probucol or vitamin E, copper sulphate [4] | further results
1 | – | – | CC(C)(C)c1cc(SCC(O)CN2CCC3(CC2)CNC(=O)O3)cc(C(C)(C)C)c1O (racemic) [Example 1, (R,S)-8-[3-(3,5-di-tert.-butyl-4-hydroxyphenylthio)-2-hydroxypropyl]-1-oxa-2-oxo-3,8-diazaspiro[4.5]decane] | 0.2 | 1.27 | 0 | 0 | 1.02 | 3.8 ± 1.9 | 19.1 ± 7.3 | 42.8 ± 11.3 | greater ability | 100 | greater ability | dose from which peroxidation of the LDLs is inhibited [1, 10]: ≥ 50 mg/kg/day; effect on oxidative necrosis of cardiac cells compared with reference compounds [2]: distinctly superior to the reference compounds; inhibition at 0.1 µM ([2]; Rattus norvegicus, 4 h, starting from 10^-7 M, read-out: protective effect on oxidative necrosis of cardiac cells): > 50%; inhibition at 10 µM [2, 11]: > 95%; inhibition at 1 µM [2, 12]: > 80%
2 | 300 | – | CC(C)(C)c1cc(SCCCN2CCC3(CC2)CNC(=O)O3)cc(C(C)(C)C)c1O [Example 3] | 0.66 | 0 | 0 | 0.69 | 0.91 | 4.2 ± 2.7 | 12 ± 4.4 | 60.6 ± 17.1 | greater ability | 100 | greater ability | MDA production ([1]; 10 mg/kg/day oral, 2 hours incubation with copper sulphate): 1.27 nM/mg proteins; MDA production ([1]; 10 mg/kg/day oral, 4 hours incubation with copper sulphate): 0.27 nM/mg proteins; MDA production ([1]; 10 mg/kg/day oral, 6 hours incubation with copper sulphate): 3.29 nM/mg proteins; MDA production ([1]; 10 mg/kg/day oral, 8 hours incubation with copper sulphate): 6.85 nM/mg proteins; MDA production ([1]; 10 mg/kg/day oral, 24 hours incubation with copper sulphate): 22.78 nM/mg proteins; MDA production [1, 14]: 0.16 nM/mg proteins; MDA production [1, 15]: 0 nM/mg proteins; MDA production [1, 16]: 1.06 nM/mg proteins; MDA production [1, 17]: 1.44 nM/mg proteins; MDA production [1, 18]: 7.30 nM/mg proteins; dose from which particularly effective [1, 10]: ≥ 10 mg/kg/day; dose from which peroxidation of the LDLs is inhibited [1, 10]: ≥ 50 mg/kg/day; effect on oxidative necrosis of cardiac cells compared with reference compounds [2]: distinctly superior to the reference compounds; inhibition at 10 µM [2, 11]: > 95%; inhibition at 1 µM [2, 12]: > 80%
3 | 800 | 20 | CC(C)(C)c1cc(SCCCCCN2CCC3(CC2)CNC(=O)O3)cc(C(C)(C)C)c1O [Example 4] | – | – | – | – | – | 2.6 ± 0.7 | 2.1 ± 1 | 79.1 ± 8 | greater ability | 100 | greater ability | effect on oxidative necrosis of cardiac cells compared with reference compounds [2]: distinctly superior to the reference compounds; inhibition at 10 µM [2, 11]: > 95%; inhibition at 1 µM [2, 12]: > 80%
4 | 700 | 800 | CC(C)(C)c1cc(OCCCCCN2CCC3(CC2)CNC(=O)O3)cc(C(C)(C)C)c1O [Example 5] | – | – | – | – | – | – | – | – | greater ability | – | greater ability | –
5 | 300 | 300 | CC(C)(C)c1cc(OCCCN2CCC3(CC2)CNC(=O)O3)cc(C(C)(C)C)c1O [Example 6] | – | – | – | – | – | – | – | – | greater ability | – | greater ability | –
6 | 2000 | – | CC(C)(C)c1cc(OCC(O)CN2CCC3(CC2)CNC(=O)O3)cc(C(C)(C)C)c1O (stereo not drawn) [Example 7] | – | – | – | – | – | – | – | – | – | – | – | –
7 | 300 | – | Cc1cc(OCCCCCN2CCC3(CC2)CNC(=O)O3)c(C)c(C)c1O [Example 30] | – | – | – | – | – | – | – | – | – | – | – | –
8 | 800 | 20 | CC(C)(CCN1CCC2(CC1)CNC(=O)O2)Sc1cc(C(C)(C)C)c(O)c(C(C)(C)C)c1 [Example 31] | 0.19 | 0.51 | 0.16 | 0.71 | 0.99 | – | – | – | greater ability | – | greater ability | MDA production [1, 14]: 0.33 nM/mg proteins; MDA production [1, 15]: 0.72 nM/mg proteins; MDA production [1, 16]: 1.03 nM/mg proteins; MDA production [1, 17]: 1.04 nM/mg proteins; MDA production [1, 18]: 3.16 nM/mg proteins; dose from which peroxidation of the LDLs is inhibited [1, 10]: ≥ 50 mg/kg/day
9 | 300 | – | Cc1cc(SCC(O)CN2CCC3(CC2)CNC(=O)O3)c(C)c(C)c1O (stereo not drawn) [Example 32] | – | – | – | – | – | – | – | – | – | 100 | – | –
10 | 300 | – | Cc1c(C)c2c(c(C)c1O)CCC(C)(CCN1CCC3(CC1)CNC(=O)O3)O2 (stereo not drawn) [Example 33] | – | – | – | – | – | – | – | – | – | – | – | –
11 | 300 | – | Cc1c(C)c2c(c(C)c1O)CCC(C)(CCCN1CCC3(CC1)CNC(=O)O3)O2 (stereo not drawn) [Example 34] | – | – | – | – | – | – | – | – | – | – | – | –
12 | 3000 | 4000 | CC(C)(Sc1cc(C(C)(C)C)c(O)c(C(C)(C)C)c1)Sc1cc(C(C)(C)C)c(O)c(C(C)(C)C)c1 [probucol, reference compound] | 1.85 | 3.50 | 4.90 | 12.26 | 23.81 | 26.6 ± 6.3 | 68.8 ± 3.9 | 103 ± 2 | – | – | – | retardation of peroxidation of the LDLs compared with control animals ([1]; oral treatment of Watanabe rabbits): approximately 2 hours
13 | > 100000 | 4000 | vitamin E [reference compound] | – | – | – | – | – | – | – | – | – | – | – | index of necrosis of cardiac cells ([2]; 10^-5 M, 10 µM): 61.1 ± 2.5; index of necrosis of cardiac cells ([2]; 10^-6 M, 1 µM): 79.0 ± 7.4; index of necrosis of cardiac cells ([2]; 10^-7 M, 0.1 µM): 83.5 ± 8.0
